≈ marks a conversion by molar mass, not a printed value.
Assays:
[1] = tested on: E. coli K-12; test: paper disk method, inhibitory zone diameter; type: cell-based; conditions: Escherichia coli, K12, read-out: inhibitory zone diameter
[2] = tested on: Staphylococcus aureus 6538P; test: paper disk method, inhibitory zone diameter; type: cell-based; conditions: read-out: inhibitory zone diameter
[3] = tested on: E. coli HL-1629 (Kanamycin-resistant strain); test: microbe, parasite or virus in culture; type: cell-based; conditions: Escherichia coli, read-out: inhibitory zone diameter
[4] = tested on: Klebsiella 6; test: paper disk method, inhibitory zone diameter; type: cell-based; conditions: Klebsiella, 6; 2000 γ/ml; read-out: inhibitory zone diameter
[5] = tested on: Klebsiella 7; test: paper disk method, inhibitory zone diameter; type: cell-based; conditions: Klebsiella, 7; 2000 γ/ml; read-out: inhibitory zone diameter
[6] = tested on: Mycobacterium 607; test: paper disk method, inhibitory zone diameter; type: cell-based; conditions: Mycobacterium, 607, read-out: inhibitory zone diameter
[7] = tested on: Pseudomonas 1007; test: paper disk method, inhibitory zone diameter; type: cell-based; conditions: Pseudomonas, 1007; 2000 γ/ml; read-out: inhibitory zone diameter
[8] = tested on: Staphylococcus aureus 209P JC-1; test: antibacterial activity (Minimum Inhibitory Concentration); type: cell-based; conditions: Staphylococcus aureus 209P JC-1; read-out: MIC
[9] = tested on: Staphylococcus aureus Smith S-424; test: as above; type: cell-based; conditions: SMITHS424; Staphylococcus aureus Smith S-424; read-out: MIC
[10] = tested on: Staphylococcus aureus No. 26; test: as above; type: cell-based; conditions: Staphylococcus aureus, NO.26
[11] = tested on: Staphylococcus aureus C73-4; test: as above; type: cell-based; conditions: Staphylococcus aureus, C734
[12] = tested on: Staphylococcus aureus C73-10; test: as above; type: cell-based; conditions: Staphylococcus aureus, C7310
[13] = tested on: Staphylococcus aureus C73-21; test: as above; type: cell-based; conditions: C7321; Staphylococcus aureus C73-21; read-out: MIC
[14] = tested on: Staphylococcus albus PCI-1200A; test: as above; type: cell-based; conditions: PCI1200A; Staphylococcus albus PCI-1200A; read-out: MIC
[15] = tested on: Bacillus subtilis ATCC 6633; test: as above; type: cell-based; conditions: ATCC6633; Bacillus subtilis ATCC 6633; read-out: MIC
[16] = tested on: Bacillus anthracis No. 119; test: microbe, parasite or virus in culture; type: cell-based
[17] = tested on: E. coli C73-1; test: antibacterial activity (Minimum Inhibitory Concentration); type: cell-based; conditions: Escherichia coli, C731; E. coli C73-1; read-out: MIC
[18] = tested on: E. coli C73-4; test: as above; type: cell-based; conditions: Escherichia coli, C734; E. coli C73-4; read-out: MIC
[19] = tested on: E. coli C73-12; test: as above; type: cell-based; conditions: Escherichia coli, C7312
[20] = tested on: Salmonella species C73-30; test: as above; type: cell-based; conditions: C7330
[21] = tested on: Shigella dysenteriae Shigae; test: microbe, parasite or virus in culture; type: cell-based
[22] = tested on: Klebsiella pneumoniae; test: antibacterial activity (Minimum Inhibitory Concentration); type: cell-based
[23] = tested on: Proteus morganii Kono; test: as above; type: cell-based; conditions: Morganella morganii
[24] = tested on: Proteus species C73-23; test: as above; type: cell-based; conditions: Proteus species C73-23; read-out: MIC
[25] = tested on: Proteus species C73-25; test: as above; type: cell-based; conditions: Proteus species C73-25; read-out: MIC
[26] = tested on: Proteus species C73-33; test: as above; type: cell-based; conditions: Proteus species C73-33; read-out: MIC
[27] = tested on: Proteus species C73-34; test: as above; type: cell-based; conditions: Proteus species C73-34; read-out: MIC
[28] = tested on: Enterococcus species C73-33; test: as above; type: cell-based; conditions: Enterococcus, C7333
[29] = tested on: Enterococcus species C73-17; test: as above; type: cell-based; conditions: Enterococcus, C7317
[30] = tested on: Vibrio parahaemolyticus K-3; test: as above; type: cell-based; conditions: K3; Vibrio parahaemolyticus K-3; read-out: MIC
[31] = tested on: Vibrio parahaemolyticus K-5; test: as above; type: cell-based; conditions: K5; Vibrio parahaemolyticus K-5; read-out: MIC
[32] = tested on: Vibrio parahaemolyticus K-7; test: as above; type: cell-based; conditions: K7; Vibrio parahaemolyticus K-7; read-out: MIC
[33] = tested on: microorganisms indicated; test: antimicrobial activities, paper disk method (general statement); type: cell-based; conditions: Tables 1 to 4
Experimental: The inhibitory activities were determined at various concentrations of the compounds using the paper disk method against the microorganisms indicated and the numerical values show the inhibitory zone diameter in terms of mm.

[34] = tested on: male ICR mice; test: acute toxicity; conditions: intravenous administration, 200 mg/kg

Compound: NC[C@H]1O[C@H](O[C@H]2C[C@@H](O)[C@H](N)C[C@@H]2N)[C@H](N)[C@@H](O)[C@@H]1O [5-Deoxyneamine, 5-deoxyneamine]
- zone of inhibition at 7.8 µg/mL ([1]; 7.8 γ/ml): 0 mm
- zone of inhibition at 15.6 µg/mL ([1]; 15.6 γ/ml): 0 mm
- zone of inhibition at 31.2 µg/mL ([1]; 31.2 γ/ml): 12.1 mm
- zone of inhibition at 62.5 µg/mL ([1]; 62.5 γ/ml): 14.7 mm
- zone of inhibition at 125 µg/mL ([1]; 125 γ/ml): 17.2 mm
- zone of inhibition at 250 µg/mL ([1]; 250 γ/ml): 18.7 mm
- zone of inhibition at 500 µg/mL ([1]; 500 γ/ml): 22 mm
- zone of inhibition at 1000 µg/mL ([1]; 1000 γ/ml): 24.5 mm
- zone of inhibition at 2000 µg/mL ([1]; 2000 γ/ml): 26.6 mm
- zone of inhibition at 7.8 µg/mL ([2]; 7.8 γ/ml): 0 mm
- zone of inhibition at 15.6 µg/mL ([2]; 15.6 γ/ml): 0 mm
- zone of inhibition at 31.2 µg/mL ([2]; 31.2 γ/ml): 0 mm
- zone of inhibition at 62.5 µg/mL ([2]; 62.5 γ/ml): 10.3 mm
- zone of inhibition at 125 µg/mL ([2]; 125 γ/ml): 12.4 mm
- zone of inhibition at 250 µg/mL ([2]; 250 γ/ml): 15.3 mm
- zone of inhibition at 500 µg/mL ([2]; 500 γ/ml): 18.5 mm
- zone of inhibition at 1000 µg/mL ([2]; 1000 γ/ml): 20.4 mm
- zone of inhibition at 2000 µg/mL ([2]; 2000 γ/ml): 22.5 mm
- zone of inhibition at 1000 µg/mL [3]: 0 mm
- zone of inhibition at 2000 µg/mL [3]: 13.9 mm
- zone of inhibition at 2000 µg/mL [4]: 0 mm
- zone of inhibition at 2000 µg/mL [5]: 0 mm
- zone of inhibition at 62.5 µg/mL ([6]; 62.5 γ/ml): 0 mm
- zone of inhibition at 125 µg/mL ([6]; 125 γ/ml): 0 mm
- zone of inhibition at 250 µg/mL ([6]; 250 γ/ml): 10.4 mm
- zone of inhibition at 500 µg/mL ([6]; 500 γ/ml): 16.4 mm
- zone of inhibition at 1000 µg/mL ([6]; 1000 γ/ml): 22 mm
- zone of inhibition at 2000 µg/mL ([6]; 2000 γ/ml): 26.8 mm
- zone of inhibition at 2000 µg/mL [7]: 0 mm
- MIC [8]: 0.39 µg/mL (≈ 1.27 µM)
- MIC [9]: 0.78 µg/mL (≈ 2.55 µM)
- MIC [10]: 1.56 µg/mL (≈ 5.09 µM)
- MIC [11]: 1.56 µg/mL (≈ 5.09 µM)
- MIC [12]: 1.56 µg/mL (≈ 5.09 µM)
- MIC [13]: 0.2 µg/mL (≈ 0.653 µM)
- MIC [14]: 0.2 µg/mL (≈ 0.653 µM)
- MIC [15]: 0.39 µg/mL (≈ 1.27 µM)
- MIC [16]: 1.56 µg/mL (≈ 5.09 µM)
- MIC [17]: 12.5 µg/mL (≈ 40.8 µM)
- MIC [18]: 12.5 µg/mL (≈ 40.8 µM)
- MIC [19]: 6.25 µg/mL (≈ 20.4 µM)
- MIC [20]: 12.5 µg/mL (≈ 40.8 µM)
- MIC [21]: 6.25 µg/mL (≈ 20.4 µM)
- MIC [22]: 6.25 µg/mL (≈ 20.4 µM)
- MIC [23]: 6.25 µg/mL (≈ 20.4 µM)
- MIC [24]: 12.5 µg/mL (≈ 40.8 µM)
- MIC [25]: 3.13 µg/mL (≈ 10.2 µM)
- MIC [26]: 50 µg/mL (≈ 163 µM)
- MIC [27]: 12.5 µg/mL (≈ 40.8 µM)
- MIC [28]: 6.25 µg/mL (≈ 20.4 µM)
- MIC [29]: 6.25 µg/mL (≈ 20.4 µM)
- MIC [30]: 0.39 µg/mL (≈ 1.27 µM)
- MIC [31]: 12.5 µg/mL (≈ 40.8 µM)
- MIC [32]: 12.5 µg/mL (≈ 40.8 µM)
- antimicrobial activities relative to neamine [33]: superior to those of the parent compound neamine
- acute toxicity, survival [34]: all male ICR mice were survived
